Experimental data reported in US8808746B2, “Sustained-release microspheres and methods of making and using same” (Fresenius Kabi USA, LLC, priority 2004, dated 2014).

Assay: pH versus accelerated stability of octreotide acetate solutions (HPLC)
Assay type: physicochemical
Details: 70° C.
Method: For this study, 0.2 mg/mL octreotide acetate solutions in different pH buffers (buffer ionic strength=˜50 mM) were incubated at 70° C. At various designated times, the concentration of octreotide was determined using HPLC. The degradation rate versus time (Kobs) was calculated and plotted.

[1] = pH 4.0, Arginine-Acetate, 0 hours
[2] = pH 4.0, Arginine-Acetate, 24 hours
[3] = pH 4.0, Arginine-Acetate, 48 hours
[4] = pH 4.0, Arginine-Acetate, 69 hours
[5] = pH 5.0, Arginine-Acetate, 0 hours
[6] = pH 5.0, Arginine-Acetate, 24 hours
[7] = pH 5.0, Arginine-Acetate, 48 hours
[8] = pH 5.0, Arginine-Acetate, 69 hours

C[C@@H](O)[C@@H]1NC(=O)[C@H](CCCCN)NC(=O)[C@@H](Cc2c[nH]c3ccccc23)NC(=O)[C@H](Cc2ccccc2)NC(=O)[C@@H](NC(=O)[C@H](N)Cc2ccccc2)CSSC[C@@H](C(=O)N[C@H](CO)[C@@H](C)O)NC1=O [Octreotide, octreotide acetate]
stability in solution (between a pH of 3.0 and 5.0): relatively stable | Octreotide Assay (pH 2.0, Glycine-HCl, 0 hours): 0.1965 mg/mL | Octreotide Assay (% Stability) (pH 2.0, Glycine-HCl, 0 hours): (100.00) % | Octreotide Assay (pH 2.0, Glycine-HCl, 24 hours): 0.1651 mg/mL | Octreotide Assay (% Stability) (pH 2.0, Glycine-HCl, 24 hours): (84.02) % | Octreotide Assay (pH 2.0, Glycine-HCl, 48 hours): 0.1425 mg/mL | Octreotide Assay (% Stability) (pH 2.0, Glycine-HCl, 48 hours): (72.52) % | Octreotide Assay (pH 2.0, Glycine-HCl, 69 hours): 0.1303 mg/mL | Octreotide Assay (% Stability) (pH 2.0, Glycine-HCl, 69 hours): (66.31) % | Octreotide Assay (pH 3.0, Glycine-HCl, 0 hours): 0.2214 mg/mL | Octreotide Assay (% Stability) (pH 3.0, Glycine-HCl, 0 hours): (100.00) % | Octreotide Assay (pH 3.0, Glycine-HCl, 24 hours): 0.2136 mg/mL | Octreotide Assay (% Stability) (pH 3.0, Glycine-HCl, 24 hours): (96.48) % | Octreotide Assay (pH 3.0, Glycine-HCl, 48 hours): 0.2050 mg/mL | Octreotide Assay (% Stability) (pH 3.0, Glycine-HCl, 48 hours): (92.59) % | Octreotide Assay (pH 3.0, Glycine-HCl, 69 hours): 0.2004 mg/mL | Octreotide Assay (% Stability) (pH 3.0, Glycine-HCl, 69 hours): (90.51) % | Octreotide Assay [1]: 0.1911 mg/mL | Octreotide Assay (% Stability) [1]: (100.00) % | Octreotide Assay [2]: 0.1860 mg/mL | Octreotide Assay (% Stability) [2]: (97.33) % | Octreotide Assay [3]: 0.1784 mg/mL | Octreotide Assay (% Stability) [3]: (93.35) % | Octreotide Assay [4]: 0.1741 mg/mL | Octreotide Assay (% Stability) [4]: (91.10) % | Octreotide Assay [5]: 0.2027 mg/mL | Octreotide Assay (% Stability) [5]: (100.00) % | Octreotide Assay [6]: 0.1975 mg/mL | Octreotide Assay (% Stability) [6]: (97.43) % | Octreotide Assay [7]: 0.1848 mg/mL | Octreotide Assay (% Stability) [7]: (91.17) % | Octreotide Assay [8]: 0.1819 mg/mL | Octreotide Assay (% Stability) [8]: (89.74) % | Octreotide Assay (pH 6.0, Phosphate, 0 hours): 0.1934 mg/mL | Octreotide Assay (% Stability) (pH 6.0, Phosphate, 0 hours): (100.00) % | Octreotide Assay (pH 6.0, Phosphate, 24 hours): 0.1738 mg/mL | Octreotide Assay (% Stability) (pH 6.0, Phosphate, 24 hours): (89.87) % | Octreotide Assay (pH 6.0, Phosphate, 48 hours): 0.1434 mg/mL | Octreotide Assay (% Stability) (pH 6.0, Phosphate, 48 hours): (74.15) % | Octreotide Assay (pH 6.0, Phosphate, 69 hours): 0.1276 mg/mL | Octreotide Assay (% Stability) (pH 6.0, Phosphate, 69 hours): (65.98) % | Octreotide Assay (pH 7.0, Phosphate, 0 hours): 0.2047 mg/mL | Octreotide Assay (% Stability) (pH 7.0, Phosphate, 0 hours): (100.00) % | Octreotide Assay (pH 7.0, Phosphate, 24 hours): 0.1638 mg/mL | Octreotide Assay (% Stability) (pH 7.0, Phosphate, 24 hours): (80.02) % | Octreotide Assay (pH 7.0, Phosphate, 48 hours): 0.1247 mg/mL | Octreotide Assay (% Stability) (pH 7.0, Phosphate, 48 hours): (60.92) % | Octreotide Assay (pH 7.0, Phosphate, 69 hours): 0.1056 mg/mL | Octreotide Assay (% Stability) (pH 7.0, Phosphate, 69 hours): (51.59) % | Octreotide Assay (pH 8.0, Phosphate, 0 hours): 0.1906 mg/mL | Octreotide Assay (% Stability) (pH 8.0, Phosphate, 0 hours): (100.00) % | Octreotide Assay (pH 8.0, Phosphate, 24 hours): 0.0793 mg/mL | Octreotide Assay (% Stability) (pH 8.0, Phosphate, 24 hours): (41.61) % | Octreotide Assay (pH 8.0, Phosphate, 48 hours): 0.0369 mg/mL | Octreotide Assay (% Stability) (pH 8.0, Phosphate, 48 hours): (19.36) % | Octreotide Assay (pH 8.0, Phosphate, 69 hours): 0.0280 mg/mL | Octreotide Assay (% Stability) (pH 8.0, Phosphate, 69 hours): (14.69) %
